Reference: paper PMC12873548, “D-amino acid substitution and cyclization enhance the stability and antimicrobial activity of arginine-rich peptides” (Microbiology, 2026)
Where two headings read alike, the source gives them in different places. No end group written: not given here.

Legend:
E. coli (ATCC25922) = assay type: cell-based, Escherichia coli
Experimental: (§1) The MIC of arginine-based peptides was assessed using the microbroth dilution approach. Our in vitro screening included a panel of Gram-negative bacteria, Escherichia coli (ATCC 25922 and enterohaemorrhagic O157:H7) and Pseudomonas aeruginosa (PA01 and the drug-resistant strain NCTC 13437), and Gram-positive bacteria (Staphylococcus aureus ATCC 12600). Five-millilitre overnight cultures in Lysogeny broth, prepared from single isolated colonies, were diluted to 5×10^6 c.f.u. ml^−1 mid-log phase in Mueller–Hinton (MH) broth. Next, peptide concentrations (0 to 1 mM) were serially diluted twofold in 96-well plates and incubated overnight at 37 °C with the tested bacterial strains. In each case, the MIC was determined as the lowest peptide concentration at which no detectable bacterial growth was observed, employing an absorbance-based assay using a Tecan Spark® multimode plate reader. Subsequently, 10 µl aliquots from each peptide dilution were transferred to MH agar (1.5%) plates to determine the minimum bactericidal concentration (MBC) which was assessed by establishing at which concentration no visible growth of bacteria (assessed via colony formation) on the plate was observed.

E. coli (O157:H7) = assay type: cell-based, Escherichia coli; conditions: for MBC: 10 µl aliquots plated on MH agar, no visible colonies; for MIC: MH broth, 5×10^6 cells, 24 h, 37 °C, absorbance 600 nm, triplicate
Experimental: as §1

P. aeruginosa (PA01) [1] = assay type: cell-based, Pseudomonas aeruginosa; conditions: P. aeruginosa PA01; for MBC: 10 µl aliquots plated on MH agar, no visible colonies; for MIC: MH broth, 5×10^6 cells, 24 h, 37 °C, absorbance 600 nm, triplicate
Experimental: as §1

S. aureus (ATCC12600) = assay type: cell-based, Staphylococcus aureus; conditions: S. aureus ATCC12600; for MBC: 10 µl aliquots plated on MH agar, no visible colonies; for MIC: MH broth, 5×10^6 cells, 24 h, 37 °C, absorbance 600 nm, triplicate
Experimental: as §1

E. coli (25922) = assay type: cell-based, Escherichia coli; conditions: for MIC, Control: control without serum or trypsin; for MIC, Trypsin: peptide incubated with 5 µM SGMT trypsin in 50 mM Tris-HCl, 1 mM CaCl2, pH 7.6, 24 h at 37 °C before MIC; for MIC, 20% human serum: peptide incubated with 20% human serum 24 h at 37 °C before MIC; for MIC, 50% human serum: peptide incubated with 50% human serum 24 h at 37 °C before MIC
Experimental: as §1
(§2) The antimicrobial activity and structural stability of arginine-rich peptides were evaluated in the presence of human serum (20% and 50 %) and 5 µM Sequencing Grade Modified Trypsin (SGMT, Promega). Briefly, fresh human blood was collected in EDTA tubes and allowed to clot at room temperature for 1 h. Serum was then collected following centrifugation at 2,000 r.p.m. for 10 min at 4 °C. Peptides were incubated with 20%, 50% human serum and 5 µM SGMT in 50 mM Tris-HCl buffer (1 mM CaCl₂, pH 7.6) for 24 h at 37 °C. After the incubation period, the solutions were further incubated with E. coli (ATCC 25922 and O157:H7), P. aeruginosa (PA01, NCTC13437) and S. aureus (ATCC12600), and the MIC was assessed as described in the ‘Antibacterial assessment’ section. Additionally, the samples were analysed using electrospray ionization MS to monitor structural changes based on the molecular weight of the peptides.

P. aeruginosa (PA01) [2] = assay type: cell-based, Pseudomonas aeruginosa; conditions: for MIC, Control: control without serum or trypsin; for MIC, Trypsin: peptide incubated with 5 µM SGMT trypsin in 50 mM Tris-HCl, 1 mM CaCl2, pH 7.6, 24 h at 37 °C before MIC; for MIC, 20% human serum: peptide incubated with 20% human serum 24 h at 37 °C before MIC; for MIC, 50% human serum: peptide incubated with 50% human serum 24 h at 37 °C before MIC
Experimental: as §1, §2

S. aureus (12600) = assay type: cell-based, Staphylococcus aureus; conditions: for MIC, Control: control without serum or trypsin; for MIC, Trypsin: peptide incubated with 5 µM SGMT trypsin in 50 mM Tris-HCl, 1 mM CaCl2, pH 7.6, 24 h at 37 °C before MIC; for MIC, 20% human serum: peptide incubated with 20% human serum 24 h at 37 °C before MIC; for MIC, 50% human serum: peptide incubated with 50% human serum 24 h at 37 °C before MIC
Experimental: as §1, §2

[3] = tested on: P. aeruginosa (NCTC13437); assay type: cell-based, Pseudomonas aeruginosa; conditions: P. aeruginosa NCTC13437 (drug-resistant)
Experimental: as §1

[4] = E. coli ATCC25922, 10 µl aliquots plated on MH agar, no visible colonies
[5] = E. coli ATCC25922, MH broth, 5×10^6 cells, 24 h, 37 °C, absorbance 600 nm, triplicate

Sequence | MBC (E. coli (ATCC25922); [4]) | MIC (E. coli (ATCC25922); [5]) | MBC (E. coli (O157:H7)) | MIC (E. coli (O157:H7)) | MBC (P. aeruginosa (PA01) [1]) | MIC (P. aeruginosa (PA01) [1]) | MBC (S. aureus (ATCC12600)) | MIC (S. aureus (ATCC12600)) | MIC, Control (E. coli (25922)) | MIC, Trypsin (E. coli (25922)) | MIC, 20% human serum (E. coli (25922)) | MIC, 50% human serum (E. coli (25922)) | MIC, Control (P. aeruginosa (PA01) [2]) | MIC, Trypsin (P. aeruginosa (PA01) [2]) | MIC, 20% human serum (P. aeruginosa (PA01) [2]) | MIC, 50% human serum (P. aeruginosa (PA01) [2]) | MIC, Control (S. aureus (12600)) | MIC, Trypsin (S. aureus (12600)) | MIC, 20% human serum (S. aureus (12600)) | MIC, 50% human serum (S. aureus (12600)) | further results
RRRRAAAA [Peptide R4A4] | 1,000/>1,000 μM | 1,000/>1,000 μM | >1,000/>1,000 μM | >1,000/>1,000 μM | >1,000/>1,000 μM | >1,000/>1,000 μM | >1,000/>1,000 μM | >1,000/>1,000 μM | 1,000 μM | >1,000 μM | 1,000 μM | >1,000 μM | >1,000 μM | >1,000 μM | >1,000 μM | >1,000 μM | >1,000 μM | >1,000 μM | >1,000 μM | >1,000 μM | –
RRRRVVVV [Peptide R4V4] | 1,000/>1,000 μM | 1,000/>1,000 μM | 1,000/>1,000 μM | 1,000/>1,000 μM | >1,000/>1,000 μM | >1,000/>1,000 μM | >1,000/>1,000 μM | >1,000/>1,000 μM | 1,000 μM | >1,000 μM | 1,000 μM | >1,000 μM | >1,000 μM | >1,000 μM | >1,000 μM | >1,000 μM | >1,000 μM | >1,000 μM | >1,000 μM | >1,000 μM | –
PRRRRFFFF [PR4F4] | – | – | – | – | – | – | – | – | – | – | – | – | – | – | – | – | – | – | – | – | MBC (E. coli (ATCC25922); ATCC25922): 125 µM; MIC (E. coli (ATCC25922); ATCC25922, 24 h): 62.5 µM
RRARSAVAS [RRARSAVAS] | >1,000/>1,000 μM | >1,000/>1,000 μM | >1,000/>1,000 μM | >1,000/>1,000 μM | >1,000/>1,000 μM | >1,000/>1,000 μM | >1,000/>1,000 μM | >1,000/>1,000 μM | >1,000 μM | >1,000 μM | >1,000 μM | >1,000 μM | >1,000 μM | >1,000 μM | >1,000 μM | >1,000 μM | >1,000 μM | >1,000 μM | >1,000 μM | >1,000 μM | MBC ([3]; 10 µl aliquots plated on MH agar, no visible colonies): >1,000/>1,000 μM; MIC ([3]; MH broth, 5×10^6 cells, 24 h, 37 °C, absorbance 600 nm, triplicate): >1,000/>1,000 μM
